Measurements reported in patent US8710043B2, “TRPM8 antagonists and their use in treatments” (Amgen Inc., priority 2011, dated 2014).

What follows are compounds tested against T1, human TRPM8 (Homo sapiens, UniProt Q7Z2W7) (assay: Luminescence readout assay for measuring intracellular calcium, icilin activation). Details: CHO cells expressing human TRPM8, aequorin luminescence, 1 μM icilin activation; read-out: hTRPM8 IC50.
T1 construct: expressed in transfected cells; host or cells: Chinese hamster ovary (CHO) cells, T-REx tetracycline-inducible system, co-transfected with aequorin
Type: cell-based
Method: Luminescence Readout Assay for Measuring Intracellular Calcium.
A stable Chinese hamster ovary cell line expressing human TRPM8 was generated using tetracycline inducible T-REx™ expression system from Invitrogen, Inc. (Carlsbad, Calif.). […] Twenty four hours before the assay, cells were seeded in 96-well plates and TRPM8 expression was induced with 0.5 μg/mL tetracycline. […] Potential antagonists were added 2.5 min prior to the addition of agonist, 1 μM icilin, 100 μM L-menthol, or 1 min prior to the addition of cold buffer (<10° C.). The luminescence was measured by a CCD camera based FLASH-luminometer built by Amgen, Inc. A cooling device attached to FLASH luminometer was used for cold activation.

T1 sequence (Q7Z2W7 whole entry): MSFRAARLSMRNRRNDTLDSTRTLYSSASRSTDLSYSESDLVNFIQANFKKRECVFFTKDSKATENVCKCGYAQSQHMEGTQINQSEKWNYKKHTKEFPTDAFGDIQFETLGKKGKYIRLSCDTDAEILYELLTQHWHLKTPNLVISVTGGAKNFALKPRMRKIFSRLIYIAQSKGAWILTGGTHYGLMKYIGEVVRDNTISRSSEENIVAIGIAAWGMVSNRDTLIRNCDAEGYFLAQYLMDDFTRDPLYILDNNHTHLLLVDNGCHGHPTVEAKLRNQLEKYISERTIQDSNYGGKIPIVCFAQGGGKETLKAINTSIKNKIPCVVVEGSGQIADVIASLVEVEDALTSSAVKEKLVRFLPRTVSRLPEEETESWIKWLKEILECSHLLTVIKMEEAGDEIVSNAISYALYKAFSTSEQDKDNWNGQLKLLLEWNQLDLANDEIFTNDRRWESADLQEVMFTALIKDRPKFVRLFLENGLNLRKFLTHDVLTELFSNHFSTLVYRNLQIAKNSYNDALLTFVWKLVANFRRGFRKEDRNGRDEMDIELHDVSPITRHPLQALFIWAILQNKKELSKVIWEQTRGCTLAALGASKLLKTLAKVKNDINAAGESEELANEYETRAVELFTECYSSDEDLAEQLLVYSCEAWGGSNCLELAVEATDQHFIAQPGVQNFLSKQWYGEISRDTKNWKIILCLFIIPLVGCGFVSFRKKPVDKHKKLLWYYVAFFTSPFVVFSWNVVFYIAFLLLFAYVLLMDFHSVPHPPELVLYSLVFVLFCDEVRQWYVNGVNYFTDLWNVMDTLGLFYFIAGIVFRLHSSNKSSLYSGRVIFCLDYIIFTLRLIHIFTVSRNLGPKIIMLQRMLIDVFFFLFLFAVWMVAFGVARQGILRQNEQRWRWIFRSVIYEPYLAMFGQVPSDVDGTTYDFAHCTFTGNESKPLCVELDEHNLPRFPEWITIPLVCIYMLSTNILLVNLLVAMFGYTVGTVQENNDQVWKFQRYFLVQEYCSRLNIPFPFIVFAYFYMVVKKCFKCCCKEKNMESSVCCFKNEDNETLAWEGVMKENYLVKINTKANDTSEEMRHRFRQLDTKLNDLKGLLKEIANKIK

| Structure (SMILES) | IC50 [nM] |
| --- | --- |
| N#Cc1ccc(C(=O)N[C@@H](c2ccc(C(F)(F)F)cc2)c2ncccc2F)cc1 (stereo in doubt) [Example 200, 4-cyano-N-((3-fluoropyridin-2-yl)(4-(trifluoromethyl)phenyl)methyl)benzamide] | 49.3 |
| O=C(N[C@@H](c1ccc(C(F)(F)F)cc1)c1ncccc1F)c1ccc2cccnc2c1 (stereo in doubt) [Example 204, N-((3-fluoropyridin-2-yl)(4-(trifluoromethyl)phenyl)methyl)quinoline-7-carboxamide] | 104 |
| O=C(N[C@@H](c1ccc(I)cc1)c1ncccc1C(F)(F)F)c1ccc(=O)[nH]c1 (stereo in doubt) [Example 376, N-((4-iodophenyl)(3-(trifluoromethyl)pyridin-2-yl)methyl)-6-oxo-1,6-dihydropyridine-3-carboxamide] | 53 |
| O=C(N[C@@H](c1ccc(OC(F)(F)F)cc1)c1ncccc1F)c1ccc2cccnc2c1 [Example 2, (S)-N-((3-fluoropyridin-2-yl)(4-(trifluoromethoxy)phenyl)methyl)quinoline-7-carboxamide] | 17 |
| O=C(N[C@@H](c1ccc(Cl)c(Cl)c1)c1ncccc1C(F)(F)F)c1ccc(=O)[nH]c1 [Example 3, (S)-N-((3,4-dichlorophenyl)(3-(trifluoromethyl)pyridin-2-yl)methyl)-6-hydroxynicotinamide] | 17.7 |
| O=C(N[C@@H](c1cnc2ccc(Cl)cc2c1)c1ncccc1C(F)(F)F)c1ccc2cccnc2c1 [Example 4, (S)-N-((6-chloroquinolin-3-yl)(3-(trifluoromethyl)pyridin-2-yl)methyl)quinoline-7-carboxamide] | 44 |
| O=C(N[C@@H](c1cnc2c(Cl)cccc2c1)c1ncccc1C(F)(F)F)c1ccc2cccnc2c1 [Example 7, (S)-N-((8-chloroquinolin-3-yl)(3-(trifluoromethyl)pyridin-2-yl)methyl)quinoline-7-carboxamide] | 75.8 |
| O=C(N[C@@H](c1cnc2cccc(Cl)c2c1)c1ncccc1C(F)(F)F)c1ccc2cccnc2c1 [Example 9, (S)-N-((5-chloroquinolin-3-yl)(3-(trifluoromethyl)pyridin-2-yl)methyl)quinoline-7-carboxamide] | 146 |
| O=C(N[C@@H](c1cnc2ccc(Cl)cc2c1)c1ncccc1C(F)(F)F)c1ccc(=O)[nH]c1 [Example 16, (S)-N-((6-chloroquinolin-3-yl)(3-(trifluoromethyl)pyridin-2-yl)methyl)-6-hydroxynicotinamide] | 80.7 |
| O=C(N[C@@H](c1cnc2c(F)cccc2c1)c1ncccc1C(F)(F)F)c1ccc2cccnc2c1 [Example 20, (S)-N-((8-fluoroquinolin-3-yl)(3-(trifluoromethyl)pyridin-2-yl)methyl)quinoline-7-carboxamide] | 187 |
| O=C(N[C@@H](c1ccc2ncccc2c1)c1ncccc1C(F)(F)F)c1ccc2cccnc2c1 [Example 22, (S)-N-(quinolin-6-yl(3-(trifluoromethyl)pyridin-2-yl)methyl)quinoline-7-carboxamide] | 418 |
| CC(O)c1ccc([C@H](NC(=O)c2ccc3cccnc3c2)c2ncccc2C(F)(F)F)cc1 (stereo partly drawn) [Example 26, N-((1S)-(4-(1-hydroxyethyl)phenyl)(3-(trifluoromethyl)pyridin-2-yl)methyl)quinoline-7-carboxamide] | 3290 |
| COc1cccnc1[C@@H](NC(=O)c1ccc2cccnc2c1)c1ccc(C(F)(F)F)cc1 [Example 28, (S)-N-((3-methoxypyridin-2-yl)(4-(trifluoromethyl)phenyl)methyl)quinoline-7-carboxamide] | 194 |
| COc1ncccc1C(=O)N[C@@H](c1ccc(C(F)(F)F)cc1)c1ncccc1C(F)(F)F [Example 29] | 32.4 |
| O=C(N[C@@H](c1ccc(C(F)(F)F)cc1)c1ncccc1C(F)(F)F)c1cccnn1 [Example 31, (S)-N-((4-(trifluoromethyl)phenyl)(3-(trifluoromethyl)pyridin-2-yl)methyl)pyridazine-3-carboxamide] | 162 |
| COc1ccnc(C(=O)N[C@@H](c2ccc(C(F)(F)F)cc2)c2ncccc2C(F)(F)F)c1 [Example 32, (S)-4-methoxy-N-((4-(trifluoromethyl)phenyl)(3-(trifluoromethyl)pyridin-2-yl)methyl)picolinamide] | 143 |
| COc1cccc(C(=O)N[C@@H](c2ccc(C(F)(F)F)cc2)c2ncccc2C(F)(F)F)n1 [Example 33, (S)-6-methoxy-N-((4-(trifluoromethyl)phenyl)(3-(trifluoromethyl)pyridin-2-yl)methyl)picolinamide] | 125 |
| COc1cc(C(=O)N[C@@H](c2ccc(C(F)(F)F)cc2)c2ncccc2C(F)(F)F)ccn1 [Example 34, (S)-2-methoxy-N-((4-(trifluoromethyl)phenyl)(3-(trifluoromethyl)pyridin-2-yl)methyl)isonicotinamide] | 32.2 |
| COc1ccc(C(=O)NC(c2ccc(C(F)(F)F)cc2)c2ncccc2F)cn1 (stereo not shown) [Example 35, N-((3-fluoropyridin-2-yl)(4-(trifluoromethyl)phenyl)methyl)-6-methoxynicotinamide] | 19.6 |

Next, values leading:

| IC50 [nM] | Structure (SMILES) |
| --- | --- |
| 73.9 | O=C(N[C@@H](c1ccc(Cl)cc1)c1ncccc1C(F)(F)F)c1ccc2cccnc2c1 [Example 6, (S)-N-((4-chlorophenyl)(3-(trifluoromethyl)pyridin-2-yl)methyl)quinoline-7-carboxamide] |
| 54.3 | COc1ccc2cc([C@H](NC(=O)c3ccc4cccnc4c3)c3ncccc3C(F)(F)F)cnc2c1 [Example 8, (S)-N-((7-methoxyquinolin-3-yl)(3-(trifluoromethyl)pyridin-2-yl)methyl)quinoline-7-carboxamide] |
| 20.5 | O=C(N[C@@H](c1ccc(Cl)c(Cl)c1)c1ncccc1C(F)(F)F)c1ccc2cccnc2c1 [Example 10] |
| 83.3 | O=C(N[C@@H](c1cccc(Cl)c1)c1ncccc1C(F)(F)F)c1ccc2cccnc2c1 [Example 13, (S)-N-((3-chlorophenyl)(3-(trifluoromethyl)pyridin-2-yl)methyl)quinoline-7-carboxamide] |
| 117 | O=C(N[C@@H](c1ccc2ccccc2c1)c1ncccc1C(F)(F)F)c1ccc2cccnc2c1 [Example 15, (S)-N-(naphthalen-2-yl(3-(trifluoromethyl)pyridin-2-yl)methyl)quinoline-7-carboxamide] |
| 230 | O=C(N[C@@H](c1cccc(F)c1)c1ncccc1C(F)(F)F)c1ccc2cccnc2c1 [Example 17, (S)-N-((3-fluorophenyl)(3-(trifluoromethyl)pyridin-2-yl)methyl)quinoline-7-carboxamide] |
| 1060 | COc1cccc2cc([C@H](NC(=O)c3ccc4cccnc4c3)c3ncccc3C(F)(F)F)cnc12 [Example 23, (S)-N-((8-methoxyquinolin-3-yl)(3-(trifluoromethyl)pyridin-2-yl)methyl)quinoline-7-carboxamide] |
| 318 | COc1cccc([C@H](NC(=O)c2ccc3cccnc3c2)c2ncccc2C(F)(F)F)c1 [Example 24, (S)-N-((3-methoxyphenyl)(3-(trifluoromethyl)pyridin-2-yl)methyl)quinoline-7-carboxamide] |
| 36.8 | COc1ccc([C@H](NC(=O)c2ccc3cccnc3c2)c2ncccc2C(F)(F)F)cc1F [Example 25, (S)-N-((3-fluoro-4-methoxyphenyl)(3-(trifluoromethyl)pyridin-2-yl)methyl)quinoline-7-carboxamide] |
